The subject of series [1] is RAW264.7. The series can be described thus: Anti-inflammatory activity in mouse RAW264.7 cells assessed as reduction in LPS-induced NO production preincubated for 30 mins followed by LPS stimulation measured after 24 hrs by Griess assay. The class given is functional, cell-based.
Series [2] deals with RAW264.7. Put plainly: Cytotoxicity against mouse RAW264.7 cells assessed as reduction in cell viability at 50 uM after 24 hrs by MTT assay. The class given is cell-based. As to conditions: raw264.7, 24 h.
Series [3] deals with RAW264.7. Put plainly: Inhibition of NF-kappaB in LPS-induced mouse RAW264.7 cells assessed as reduction in iNOS mRNA levels preincubated for 1 hr followed by LPS stimulation measured after 24 hrs by RT-PCR analysis. The class given is cell-based.
The subject of series [4] is RAW264.7. Put plainly: Inhibition of NF-kappaB in LPS-induced mouse RAW264.7 cells assessed as reduction in IL-1beta mRNA levels preincubated for 1 hr followed by LPS stimulation measured after 24 hrs by RT-PCR analysis. Type of series: cell-based.
For series [5], the system named is RAW264.7. The series can be described thus: Inhibition of NF-kappaB in LPS-induced mouse RAW264.7 cells assessed as reduction in TNFalpha mRNA levels at 5 to 25 uM preincubated for 1 hr followed by LPS stimulation measured after 24 hrs by RT-PCR analysis. The class given is cell-based.
Series [6] deals with Transcription factor p65 (Mus musculus) (UniProt Q04207). Put plainly: Inhibition of NF-kappaB p65 phosphorylation in cytosol of LPS-stimulated mouse RAW264.7 cells preincubated for 1 hr followed by LPS stimulation for 90 mins by Western blot method. The class given is cell-based.
Series [7] concerns RAW264.7. Put plainly: Inhibition of NF-kappaB in LPS-induced mouse RAW264.7 cells assessed as reduction in iNOS protein expression levels at 5 to 25 uM preincubated for 1 hr followed by LPS stimulation measured after 24 hrs by Western blot analysis. The class given is cell-based.
In series [8] the target is MAP kinase p38 (Mus musculus) (UniProt P47811+O08911+Q9WUI1+Q9Z1B7). Put plainly: Inhibition of MAPK p38 phosphorylation in LPS-stimulated mouse RAW264.7 cells at 5 to 25 uM preincubated for 1 hr followed by LPS stimulation for 30 mins by Western blot method. The class given is cell-based.
Series [9] has as its target T1, NF-kappa-B inhibitor alpha (Mus musculus) (UniProt Q9Z1E3).
T1 sequence (whole entry): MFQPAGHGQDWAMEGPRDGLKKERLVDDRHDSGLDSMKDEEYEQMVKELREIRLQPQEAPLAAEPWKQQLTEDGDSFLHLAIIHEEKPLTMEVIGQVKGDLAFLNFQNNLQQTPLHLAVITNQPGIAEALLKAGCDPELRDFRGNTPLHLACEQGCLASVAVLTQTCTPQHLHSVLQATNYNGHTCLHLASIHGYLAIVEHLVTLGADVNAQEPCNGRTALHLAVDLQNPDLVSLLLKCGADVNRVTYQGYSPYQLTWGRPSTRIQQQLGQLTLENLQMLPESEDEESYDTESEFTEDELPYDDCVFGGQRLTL
Put plainly: Inhibition of IkappaBalpha phosphorylation in cytosol of LPS-stimulated mouse RAW264.7 cells preincubated for 1 hr followed by LPS stimulation for 90 mins by Western blot method. The class given is cell-based.

The target of series [10] is Transcription factor p65 (Mus musculus) (UniProt Q04207). The series can be described thus: Inhibition of NF-kappaB p65 phosphorylation in nucleus of LPS-stimulated mouse RAW264.7 cells preincubated for 1 hr followed by LPS stimulation for 90 mins by Western blot method. The class given is cell-based.
Series [11] relates to RAW264.7. The series can be described thus: Inhibition of JNK phosphorylation in LPS-stimulated mouse RAW264.7 cells at 5 to 25 uM preincubated for 1 hr followed by LPS stimulation for 30 mins by Western blot method. The class given is cell-based.
For series [12], the system named is RAW264.7. Put plainly: Inhibition of NF-kappaB in LPS-induced mouse RAW264.7 cells assessed as reduction in COX2 mRNA levels at 5 to 25 uM preincubated for 1 hr followed by LPS stimulation measured after 24 hrs by RT-PCR analysis. Type of series: cell-based.
For series [13], the system named is RAW264.7. Put plainly: Inhibition of ERK phosphorylation in LPS-stimulated mouse RAW264.7 cells at 5 to 25 uM preincubated for 1 hr followed by LPS stimulation for 30 mins by Western blot method. Type of series: cell-based.
In series [14] the target is T1, NF-kappa-B inhibitor alpha (Mus musculus). The series can be described thus: Inhibition of IkappaBalpha phosphorylation in nucleus of LPS-stimulated mouse RAW264.7 cells preincubated for 1 hr followed by LPS stimulation for 90 mins by Western blot method. The class given is cell-based.
Series [15] concerns RAW264.7. Put plainly: Inhibition of NF-kappaB in LPS-induced mouse RAW264.7 cells assessed as reduction in COX2 protein expression levels at 5 to 25 uM preincubated for 1 hr followed by LPS stimulation measured after 24 hrs by Western blot analysis. Type of series: cell-based.
The target of series [16] is Transcription factor p65 (Mus musculus) (UniProt Q04207). The series can be described thus: Inhibition of NF-kappaB p65 phosphorylation in nucleus of LPS-stimulated mouse RAW264.7 cells at 5 to 25 uM preincubated for 1 hr followed by LPS stimulation for 90 mins by Western blot method. The class given is cell-based.
The target is the same in series [17]. Put plainly: Inhibition of NF-kappaB p65 phosphorylation in cytosol of LPS-stimulated mouse RAW264.7 cells at 5 to 25 uM preincubated for 1 hr followed by LPS stimulation for 90 mins by Western blot method. The class given is cell-based.
The target of series [18] is T1, NF-kappa-B inhibitor alpha (Mus musculus). The series can be described thus: Inhibition of IkappaBalpha phosphorylation in nucleus of LPS-stimulated mouse RAW264.7 cells at 5 to 25 uM preincubated for 1 hr followed by LPS stimulation for 90 mins by Western blot method. The class given is cell-based.
For series [19] the target is unchanged. The series can be described thus: Inhibition of IkappaBalpha phosphorylation in cytosol of LPS-stimulated mouse RAW264.7 cells at 5 to 25 uM preincubated for 1 hr followed by LPS stimulation for 90 mins by Western blot method. The class given is cell-based.

The source of these data is ChEMBL document CHEMBL4130460, “Anti-inflammatory Activity of Eudesmane-Type Sesquiterpenoids from Salvia plebeia” (J Nat Prod, 2017).

The source made the active and inactive calls. No cut-off for these calls is given here.

Sequence of Transcription factor p65 (Mus musculus) (Q04207 whole entry): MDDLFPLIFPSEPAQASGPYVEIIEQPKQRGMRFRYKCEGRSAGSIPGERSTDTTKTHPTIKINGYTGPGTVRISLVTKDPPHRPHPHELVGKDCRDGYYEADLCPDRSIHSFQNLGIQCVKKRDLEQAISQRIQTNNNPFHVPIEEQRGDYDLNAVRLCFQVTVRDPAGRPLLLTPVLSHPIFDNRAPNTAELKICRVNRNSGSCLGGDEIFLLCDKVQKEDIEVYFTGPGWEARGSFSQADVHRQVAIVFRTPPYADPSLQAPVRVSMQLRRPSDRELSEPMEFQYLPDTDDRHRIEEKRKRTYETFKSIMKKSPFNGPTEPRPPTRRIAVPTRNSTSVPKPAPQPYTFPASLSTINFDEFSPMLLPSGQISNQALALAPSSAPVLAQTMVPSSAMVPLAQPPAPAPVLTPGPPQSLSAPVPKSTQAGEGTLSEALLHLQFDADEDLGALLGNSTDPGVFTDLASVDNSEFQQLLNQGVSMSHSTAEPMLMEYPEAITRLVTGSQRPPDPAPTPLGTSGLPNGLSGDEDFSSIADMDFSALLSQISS

For `CC1=C2CC3=C(C)[C@@H](O)C[C@@H](O)[C@@]3(C)C[C@@]2(O)OC1=O`, in the series with RAW264.7 [1], the IC50 is above 100 µM. In addition, the Activity result in the series with RAW264.7 [2] is “Non-Toxic”.

In the case of `CC1=C2C[C@@H]3[C@@H](C)C(=O)C=C[C@@]3(C)C[C@@]2(O)OC1=O`, the IC50 with RAW264.7 [1] stood at 68.9 µM. Further, the Activity entry in the series with RAW264.7 [2] is “Non-Toxic”.

`CC(=O)O[C@H]1C[C@@H](O)[C@@]2(C)C[C@@]3(O)OC(=O)C(C)=C3[C@H](O)[C@@H]2[C@H]1C`: in the series on RAW264.7 [1], the IC50 is above 100 µM. In addition, in the series with RAW264.7 [2], the Activity entry was “Non-Toxic”.

`CO[C@@]12C[C@]3(C)[C@H](O)C[C@H](O)[C@H](C)[C@H]3CC1=C(C)C(=O)O2`: the IC50 with RAW264.7 [1] was above 100 µM. In addition, in the series on RAW264.7 [2], the Activity entry is reported as “Non-Toxic”.

With `CC(=O)O[C@@H]1C(=O)C=C(C)[C@@H]2CC3=C(C)C(=O)O[C@@]3(O)C[C@@]12C`, in the series with RAW264.7 [1], the 50% inhibitory concentration (IC50) is above 100 µM. Also, the Activity entry with RAW264.7 [2] was “Non-Toxic”.

As to `CC(=O)O[C@H]1C[C@@H](O)[C@@]2(C)C[C@@]3(O)OC(=O)C(C)=C3C[C@@H]2[C@H]1C`, the IC50 with RAW264.7 [1] was above 100 µM. Further, the Activity entry in the series on RAW264.7 [2] is on record as “Non-Toxic”.

For `CC(=O)O[C@H]1C[C@@H](O)[C@@]2(C)C=C3OC(=O)C(C)=C3C[C@@H]2[C@H]1C`, the IC50 with RAW264.7 [1] worked out at 30 µM. The Activity entry in the series on RAW264.7 [2] was “Non-Toxic”.

For `CC1=C2C[C@@H]3[C@@H](C)C(=O)C=C[C@@]3(C)C[C@H]2OC1=O`, in the series with RAW264.7 [1], the IC50 is 70.2 µM. The Activity result in the series with RAW264.7 [2] is given as “Non-Toxic”.

Consider `CO[C@]12C[C@@]3(C)[C@H](OC(C)=O)C(=O)C=C(C)[C@@H]3CC1=C(C)C(=O)O2`, for which, in the series on RAW264.7 [1], the 50% inhibitory concentration (IC50) is above 100 µM. Further, the Activity entry in the series with RAW264.7 [2] is recorded as “Non-Toxic”.

With `CC1=C2C[C@H]3[C@](C)(C=C2OC1=O)[C@H](O)CC[C@]3(C)O`, the IC50 with RAW264.7 [1] was above 100 µM. In addition, the Activity result in the series on RAW264.7 [2] is on record as “Non-Toxic”.

Regarding `O=c1cc(-c2ccc(O)c(O)c2)oc2cc(O)cc(O)c12` [LUTEOLIN], in the series with RAW264.7 [1], the IC50 was found to be 5.6 µM.

As to `CC1=C2C[C@@H]3[C@@H](C)[C@@H](O)C[C@@H](O)[C@@]3(C)C[C@@]2(O)OC1=O`, the IC50 in the series on RAW264.7 [1] is above 100 µM. Also, the Activity entry in the series on RAW264.7 [2] is “Non-Toxic”.

`CC1=C[C@@H](O)[C@@H](O)[C@@]2(C)C[C@@]3(O)OC(=O)C(C)=C3C[C@H]12`: the half-inhibitory concentration (IC50) in the series with RAW264.7 [1] is above 100 µM. The Activity entry in the series on RAW264.7 [2] is given as “Non-Toxic”.

For the molecule `CO[C@@]12C[C@]3(C)[C@H](O)C[C@H](OC(C)=O)[C@H](C)[C@H]3CC1=C(C)C(=O)O2`, in the series on RAW264.7 [1], the IC50 was determined as 19.9 µM. Besides, in the series with RAW264.7 [2], the Activity result is reported as “Non-Toxic”.

In the case of `CC1=C2C[C@@H]3[C@](C)(O)[C@@H](O)C[C@@H](O)[C@@]3(C)C=C2OC1=O`, in the series with RAW264.7 [1], the IC50 was above 100 µM. Besides, in the series with RAW264.7 [2], the Activity result is recorded as “Non-Toxic”.

In the case of `CC1=C2C[C@@H]3[C@@H](C)[C@@H](O)C[C@@H](O)[C@@]3(C)C=C2OC1=O`, the IC50 in the series with RAW264.7 [1] was above 100 µM. Moreover, in the series with RAW264.7 [2], the Activity entry is listed as “Non-Toxic”.

Take `CC1=C2C[C@H]3[C@](C)(C=C2OC1=O)[C@@H](O)CC[C@]3(C)O`: in the series on RAW264.7 [1], the IC50 was above 100 µM. Moreover, in the series on RAW264.7 [2], the Activity result is recorded as “Non-Toxic”.

On to `CC1=C2C[C@@H]3[C@@](C)(C[C@]2(O)OC1=O)C(=O)C=C[C@@]3(C)O`, for which the IC50 in the series with RAW264.7 [1] turned out to be 57 µM. For the same molecule, the Activity entry in the series with RAW264.7 [2] was “Non-Toxic”.

`CC(=O)OC1=C[C@@](C)(O)[C@@H]2CC3=C(C)C(=O)O[C@@]3(O)C[C@@]2(C)C1=O`: the half-inhibitory concentration (IC50) with RAW264.7 [1] is above 100 µM. Further, the Activity entry with RAW264.7 [2] was “Non-Toxic”.

Take `CO[C@]12C[C@]3(C)C=CC(=O)[C@H](C)[C@H]3CC1=C(C)C(=O)O2`: the inhibition entry (in the series with RAW264.7 [3]; in the series on RAW264.7 [4]; in [6]; in series [9]; in series [10]; in series [14]) was “Dose-dependent effect” each time. Further, the IC50 in the series on RAW264.7 [1] was determined as 17.9 µM. Moreover, the inhibition result (in the series on RAW264.7 [5]; in series [8]; in the series with RAW264.7 [11]; in the series with RAW264.7 [12]; with RAW264.7 [13]; in the series on RAW264.7 [15]) was “inactive” each time. Further, the inhibition entry with RAW264.7 [7] was “Active”. For the same molecule, in the series with RAW264.7 [2], the Activity result was “Non-Toxic”.

Regarding `CO[C@@]12C[C@]3(C)C=CC(=O)[C@H](C)[C@H]3CC1=C(C)C(=O)O2`, the inhibition result in the series with RAW264.7 [3] and with RAW264.7 [4] was “Dose-dependent effect” each time. Moreover, the IC50 with RAW264.7 [1] turned out to be 31.2 µM. Besides, the inhibition result (in [16]; in the series on RAW264.7 [5]; in series [17]; in [18]; in series [8]; in [19]) was “inactive” throughout. Also, the inhibition result in the series with RAW264.7 [11], in the series with RAW264.7 [12], in the series with RAW264.7 [13] and with RAW264.7 [15] was “inactive” each time. Also, in the series with RAW264.7 [7], the inhibition entry is “Active”. Moreover, the Activity entry with RAW264.7 [2] is reported as “Non-Toxic”.
